Values quoted from earlier work as cited in publication PMC7855644 (Journal of pharmaceutical sciences, 2020).
Where no end group is shown, it is not given here.

System: blood brain barrier

For TFFYGGSRGRRNNFRTEEY-NH2 [Peptide A7], the In vivo transcytosis is listed as “lack of in vivo transcytosis”.
